Assay results: patent publication US6093731A, “Isoquinolines” (priority 1999, dated 2000)
Where a name gives a salt, the structure may show the parent alone.

Target: T1, human urokinase (Homo sapiens, UniProt P00749)
T1 construct: the urokinase used was HMWT Human Urokinase (Calbiochem 672081); purchased Calbiochem 672081
Experiment: urokinase inhibition assay (S-2444 substrate)
Type: biochemical
Settings: not given

Ki, ≤ 20 nM:
NC(N)=Nc1ncc(Cl)c2ccc(S(=O)(=O)NC3(C(=O)O)CCCCC3)cc12 [43(b), 1-{[(4-Chloro-1-guanidino-7-isoquinolinyl)sulphonyl]amino}cyclohexanecarboxylic acid hydrochloride]
NC(N)=Nc1ncc(Cl)c2ccc(S(=O)(=O)N3CCC[C@@H]3C(=O)O)cc12 [Example 32(b), N-[(4-Chloro-1-guanidino-7-isoquinolinyl)sulphonyl]-D-proline hydrochloride]
NC(N)=Nc1ncc(Cl)c2ccc(S(=O)(=O)NC3(C(=O)N4CCOCC4)CCCC3)cc12 [Example 78, 4-Chloro-1-guanidino-N-[1-(morpholinocarbonyl)cyclopentyl]-7-isoquinolinesulphonamide hydrochloride]
CN1CCN(C(=O)C2(NS(=O)(=O)c3ccc4c(Cl)cnc(N=C(N)N)c4c3)CCCC2)CC1 [Example 79, 4-Chloro-1-guanidino-N-{1-[(4-methylpiperazino)carbonyl]cyclopentyl}-7-isoquinolinesulphonamide dihydrochloride]

Same assay, conditions: read-out: Ki values vs. urokinase

Ki, ≤ 20 nM:
NC(N)=Nc1ncc(Cl)c2ccc(S(=O)(=O)NC3(C(=O)O)CCCC3)cc12 [37(b), N-[(4-Chloro-1-guanidino-7-isoquinolinyl)sulphonyl]cycloleucine]
CN(C)CCN(C1(C(=O)O)CCCC1)S(=O)(=O)c1ccc2c(Br)cnc(NC(=N)N)c2c1 [84(b), N-({4-Bromo-1-guanidino-7-isoquinolinyl}sulphonyl)-N-[2-(dimethylamino)ethyl]cycloleucine dihydrochloride]
NC(N)=Nc1ncc(Cl)c2ccc(S(=O)(=O)NC3(C(=O)NCCO)CCCC3)cc12 [Example 38, 1-{[(4-Chloro-1-guanidino-7-isoquinolinyl)sulphonyl]amino}-N-(2-hydroxyethyl)cyclopentanecarboxamine hydrochloride]
CN(C)CCNC(=O)C1(NS(=O)(=O)c2ccc3c(Cl)cnc(N=C(N)N)c3c2)CCCC1 [Example 39(a), 1-{[(4-Chloro-1-guanidino-7-isoquinolinyl)sulphonyl]amino}-N-[2-(dimethylamino)ethyl]cyclopentanecarboxamine]
CN(CCO)C(=O)C1(NS(=O)(=O)c2ccc3c(Cl)cnc(NC(=N)N)c3c2)CCCC1 [Example 75, 1-[({4-Chloro-1-guanidino-7-isoquinolinyl}sulphonyl)amino]-N-(2-hydroxyethyl)-N-methylcyclopentanecarboxamide hydrochloride]
COCCNC(=O)C1(NS(=O)(=O)c2ccc3c(Cl)cnc(NC(=N)N)c3c2)CCCC1 [Example 76, 1-[({4-Chloro-1-guanidino-7-isoquinolinyl}sulphonyl)amino]-N-(2-methoxyethyl)cyclopentanecarboxamide hydrochloride]
N=C(N)Nc1ncc(Cl)c2ccc(S(=O)(=O)N(CCOC3CCCCO3)C3(C(=O)O)CCCC3)cc12 (stereo not drawn) [Example 87(b), 1-{[(4-Chloro-1-guanidino-7-isoquinolinyl)sulphonyl][2-(tetrahydro-2H-pyran-2-yloxy)ethyl]amino}cyclopentanecarboxylic acid]
NC(N)=Nc1ncc(Cl)c2ccc(S(=O)(=O)N3CCOC(=O)C34CCCC4)cc12 [Example 87(c), N"-{4-Chloro-7-[(10-oxo-9-oxa-6-azaspiro [4.5]dec-6-yl)sulphonyl]-1-isoquinolinyl}guanidine hydrochloride]
